Key:
mice [1] = test: Maximal ElectroShock (MES)-induced tonic seizure test; format: in vivo; conditions: Mus musculus; for ED50: read-out: Mice MES ED50 (mpk/peak time); for responders at 50 mg/kg: 4 h
Experimental: The “Maximal ElectroShock (MES)” test is a well-established pharmacological screening method for anticonvulsants against tonic-clonic seizures. The procedure employed in the MES test for anticonvulsants is as follows. The compounds to be tested were dissolved in 30% PEG400 and administered ip and po into animals. After the designated number of hours, maximal electroshock (50 mA, 60 Hz, 0.2 sec) was applied into animals via corneal electrodes using IITC Life Science model 11A Shocker. […] Median efficacy dose (ED50) levels were determined using three different dose levels with at least 8 mice in each group.

mice [2] = test: Pentylenetetrazol (PTZ)-induced clonic seizure test; format: in vivo; conditions: Mus musculus, sc, read-out: Mice PTZ ED50 (mpk/peak time)
Experimental: The “Pentylenetetrazol (PTZ)” test for anticonvulsant and antianxiety activity was also carried out.
The procedure employed in the PTZ test is as follows. The compounds to be tested were dissolved in 30% PEG400 and administered ip and po into animals. After the designated number of hours, each animal was injected subcutaneously with 100 mg/kg of PTZ (CD97 dose) and observed for up to 30 minutes for the presence or absence of clonic spasms over 5 seconds. Median efficacy dose (ED50) levels were determined using three different dose levels with 8 mice in each group.

mice [3] = test: Forced swimming test (FST); format: in vivo; conditions: 30 min after dosing
Experimental: The “Forced swimming test (FST)” for antidepressant activity was also carried out. The procedure employed in the FST for antidepressant is as follows. The compounds to be tested were dissolved in 30% PEG400 and administered ip and po into animals. 30 min later, the immobility time during post 4 minutes of 6 minutes experiment time was measured.

[4] = system: TBPS site of GABA-A receptor; test: GABA-A receptor (TBPS site) binding assay, [35S]TBPS; conditions: 100 μM; rat brain membranes, 2 nM [35S]TBPS
Experimental: Compounds of the inventions were tested for specific binding to TBPS (t-butyl bicyclophosphorothionate) site, an allosteric modulator site of GABA-A receptor as modified from G. Maksay and M. Simonyi, Eur. J. Pharmacol. 1985, 117(2), 275. and Gee, K. W. et al., J. Pharm. Exp. Ther. 1988, 246, 803.
This binding assay was performed using [35S] TBPS as radioligand in washed crude membrane homogenate from rat brains. Membrane preparations were carried out according to procedure described below. Sprague-Dawley (SD) rat weighting 230 g were killed by decapitation and their whole brains were rapidly removed and its cerebellums were excluded. The dissected brains were homogenized for 30 sec in 10 volumes (W/V) of ice-cold 0.32 M Sucrose and 50 mM Tris-citrate buffer pH 7.4 using glass homogenate. The homogenate was centrifuged at 2,000×g for 5 min at 4° C. And the supernatant re-centrifuged at 50,000×g for 20 min at 4° C. The supernatant was discarded and the resulting pellets were resuspended in 10 volumes (W/V) of ice-cold 50 mM Tris-citrate buffer pH 7.4. And then the suspended pellet was centrifuged at 50,000×g for 20 min at 4° C. The resulting pellets were suspended again in 32 volumes (W/V) of ice-cold 50 mM Tris-citrate buffer pH 7.4 with 0.05% Triton X-100 and then incubated in 37° C. for 60 min using a water bath. The incubated suspension was centrifuged at 50,000×g for 20 min at 4° C. Resuspending and centrifugation step of the remained pellets were repeated twice at the same manner and final pellets were resuspended in 10 volumes (W/V) of ice-cold 50 mM Tris-citrate buffer pH 7.4 to enable distribution of 2 ml aliquot in microcentrifuge tube, which were used immediately or kept at −80° C. for no more than 1 month before use.
For TBPS site binding assay, 50 μl of the tested compound were added to 100 μg membrane protein suspended in 0.15 ml of 50 mM Tris-citrate buffer with 200 mM NaCl pH 7.4 in presence of 2 nM of [35S] TBPS. The incubation of mixtures were carried out for 1.5 hours at 25° C. and then rapidly filtered over Whatman GF/C glass fiber filters, followed by twice 4.5 ml rinses with ice-cold incubation buffer. The filters were placed in counting vials and 4 ml scintillation solution. The vials were counted in a Beckman scintillation counter. Non-specific binding was determined in parallel incubations with 100 μM picrotoxin.
IC50 values for TBPS site binding assay was calculated using Graphpad PRISM v.3.00.

rat dopamine transporter = biological target: T1, rat dopamine transporter (Rattus norvegicus, UniProt P23977); test: Dopamine transport (DAT) assay, [3H]dopamine uptake in CHO D8 cells; format: cell-based
T1 construct: expressed in transfected cells
T1 sequence (P23977 whole entry): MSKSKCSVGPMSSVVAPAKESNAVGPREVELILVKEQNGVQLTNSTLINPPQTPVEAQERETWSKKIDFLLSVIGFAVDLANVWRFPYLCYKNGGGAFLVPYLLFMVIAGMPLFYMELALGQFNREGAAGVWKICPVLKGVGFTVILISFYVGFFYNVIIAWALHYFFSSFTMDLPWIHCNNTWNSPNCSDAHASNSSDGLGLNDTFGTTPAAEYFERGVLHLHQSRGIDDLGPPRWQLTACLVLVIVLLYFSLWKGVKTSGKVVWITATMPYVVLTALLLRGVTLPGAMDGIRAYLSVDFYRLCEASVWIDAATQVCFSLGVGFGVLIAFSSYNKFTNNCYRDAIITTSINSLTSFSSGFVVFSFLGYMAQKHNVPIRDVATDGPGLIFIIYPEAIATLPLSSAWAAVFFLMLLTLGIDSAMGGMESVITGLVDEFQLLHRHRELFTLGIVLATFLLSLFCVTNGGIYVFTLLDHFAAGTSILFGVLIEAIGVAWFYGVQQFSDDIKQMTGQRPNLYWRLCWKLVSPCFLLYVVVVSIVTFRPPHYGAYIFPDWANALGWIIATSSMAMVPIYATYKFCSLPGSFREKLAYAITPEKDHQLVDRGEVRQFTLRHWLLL
Experimental: The “Dopamine Transport (DAT)” assay for dopamine uptake inhibition was also carried out. In order to test dopamine uptake inhibition, compounds of the inventions were assayed as modified from Zhaoping Liu et. al., Neuropharmacology, 2001, 41, 464.
Cultured CHO cells were […] with recombinant plasmid, DAT-pCDNA3, which encodes rat dopamine transporter. Several subclones were selected and assayed for [3H] dopamine uptake. The clone with the highest uptake, designated D8, was chosen for Dopamine transport assay of compounds.
For the Dopamine transport assay, D8 cells were cultured in 48-well plate using RMPI1640 containing 10% FCS. D8 cells, grown to 60,000 cells per well, each wells were rinsed once with phosphate buffered saline (PBS) and pre-incubated in 100 μl Hank's balanced salt solution (HBSS) for 10 min at room temperature. The buffer was then changed to 50 μl HBSS containing the tested compounds and 350 μl HBSS containing reaction components ([3H] dopamine, ascorbic acid and pargyline). Final concentrations of [3H] dopamine, ascorbic acid and pargyline are 151 nM, 100 μM and 100 μM, respectively. The cells were incubated for 20 min at room temperature and the reaction was terminated by aspiration of the buffer and washed three times with 1 ml cold BS. The cells were then solubilized in 2N NaOH and an aliquot was measured by liquid scintillation counting to quantify the uptake of [3H] dopamine.

mice [5] = test: Light-Dark Box (LDB) test; format: in vivo; conditions: treated 30 min prior to testing
Experimental: Light-Dark Box (LDB) test, one of the unconditioned conflict tests, was used to investigate anxiolytic activity for several drugs such as Diazepam, Buspirone, etc (Allikmets et al, 1996; Belzung and Griebel, 2001; Cutler and Aitken, 1991; Leyre et al, 2004). In the present study, anxiolytic effect of azole compounds containing carbamoyl group represented by general structural formula (IX) was investigated on the LDB test in mice.
The animals were treated with compound 30 min prior to testing. The light-dark box consisted of a plexiglas apparatus measuring 45 cm×27 cm×27 cm (L×W×H), and was partitioned into two compartments, one fully opaque (dark compartment made of black plexiglas: 18 cm of total length of apparatus), while the second was lit from the compartment ceiling by a 100 W bulb. A small opening (7×7 cm) in the partition wall allowed free passage between the light and dark compartments.
Animals were placed at the lit compartment first, and the latency for escape into dark was checked and tested in the LDB for 5 min after the first entering into dark box. The animal, which the latency was over 2 min, was excluded from the test. Total time spent in the light compartment was counted. Movement of animal was checked through the TV-CCD camera by an experienced observer blind to the conditions of the experiment. A mouse whose four paws were in the new box was considered as having changed box.

mice and rats = conditions: cited from earlier work
clonic seizures = conditions: in vivo; cited from earlier work
mice [6] = conditions: probably by inhibition of cytochrome P-450; cited from earlier work
[7] = read-out: Mice MES Protection % (mpk/peak time)

With `NC(=O)OC(Cn1nccn1)c1ccccc1Cl` (stereo not drawn) [Example 1, Carbamic acid 1-(2-chloro-phenyl)-2-[1,2,3]triazol-2-yl-ethyl ester] the ED50 (mice [1]; 0.5 h) was 10.7 mg/kg, the ED50 (mice [2]; 0.5 h) was 24.5 mg/kg and the “Mice FST Reduction of immobility %” value (mice [3]) was “N.S”. The “TBPS Inhibition % (At 100 μM)” value [4] was 18.3% and the inhibition at 10 µM (rat dopamine transporter) was 47.3%.

In the case of `NC(=O)OC(Cn1ncnn1)c1ccccc1` (stereo not drawn) [Example 4, Carbamic acid 1-phenyl-2-tetrazol-2-yl-ethyl ester], the responders at 30 mg/kg (mice [1]; 0.5 h, read-out: Mice MES Protection % (mpk/peak time)) is reported as 66.7%, the “Mice FST Reduction of immobility %” value (mice [3]; dose not given) is reported as 40.3% and the inhibition at 10 µM (rat dopamine transporter) is reported as 41.5%.

With `NC(=O)OC(Cn1nccn1)c1ccccc1` (stereo not drawn) [Example 7, Carbamic acid 1-phenyl-2-[1,2,3]triazol-2-yl-ethyl ester] the ED50 (mice [1]; 0.5 h) was 26.2 mg/kg and the inhibition at 10 µM (rat dopamine transporter) was -21.1%.

With `NC(=O)O[C@@H](Cn1ncnn1)c1ccccc1Cl` [Example 20, Carbamic acid (R)-1-(2-chloro-phenyl)-2-tetrazol-2-yl-ethyl ester] the ED50 (mice [1]; 0.5 h) was 4.24 mg/kg, the ED50 (mice [2]; 0.5 h) was 3.76 mg/kg and the “Mice FST Reduction of immobility %” value (mice [3]; dose not given) was −24.3%. It also gave an inhibition at 10 µM (rat dopamine transporter) of 7.1%.

`NC(=O)O[C@H](Cn1ncnn1)c1ccccc1Cl` [Example 21, Carbamic acid (S)-1-(2-chloro-phenyl)-2-tetrazol-2-yl-ethyl ester] showed an ED50 (mice [1]; 0.5 h) of 14.2 mg/kg, an ED50 (mice [2]; 0.5 h) of 28.8 mg/kg and an inhibition at 10 µM (rat dopamine transporter) of 20.9%.

With `NC(=O)OC(Cn1nccn1)c1ccc(Cl)c(Cl)c1` (stereo not drawn) [Example 25, Carbamic acid 1-(3,4-dichloro-phenyl)-2-[1,2,3]triazol-2-yl-ethyl ester] the responders at 50 mg/kg (mice [1]; [7]) was 100%, the “Mice FST Reduction of immobility %” value (mice [3]; dose not given) was 94.1% and the inhibition at 10 µM (rat dopamine transporter) was 70.7%.

In the case of `NC(=O)OC(Cn1ncnn1)c1ccc(Cl)c(Cl)c1` (stereo not drawn) [Example 26, Carbamic acid 1-(3,4-dichloro-phenyl)-2-tetrazol-2-yl-ethyl ester], the responders at 50 mg/kg (mice [1]; [7]) is reported as 100%, the “Mice FST Reduction of immobility %” value (mice [3]; dose not given) is reported as 97.5% and the inhibition at 10 µM (rat dopamine transporter) is reported as 88.2%.

For `NC(=O)OC(Cn1nccn1)c1ccc(Cl)cc1Cl` (stereo not drawn) [Example 29, Carbamic acid 1-(2,4-dichloro-phenyl)-2-[1,2,3]triazol-2-yl-ethyl ester], the “Mice LDB % Duration in the light box” value (mice [5]; dose not given) was 288.5% ^, the ED50 (mice [1]; 1 h) was 14.4 mg/kg and the ED50 (mice [2]; 1 h) was 16.8 mg/kg. For the same compound, the “Mice FST Reduction of immobility %” value (mice [3]) was “N.S” and the inhibition at 10 µM (rat dopamine transporter) was -27.5%.

For `NC(=O)OC(Cn1ncnn1)c1ccc(Cl)cc1Cl` (stereo not drawn) [Example 30, Carbamic acid 1-(2,4-dichloro-phenyl)-2-tetrazol-2-yl-ethyl ester], the “Mice LDB % Duration in the light box” value (mice [5]; dose not given) was 143.6% ^, the ED50 (mice [1]; 1 h) was 14.9 mg/kg and the ED50 (mice [2]; 1 h) was 12.2 mg/kg. The “Mice FST Reduction of immobility %” value (mice [3]) was “N.S” and the inhibition at 10 µM (rat dopamine transporter) was 15.1%.

With `CNC(=O)O[C@@H](Cn1ncnn1)c1ccccc1Cl` [Example 45, Methyl-carbamic acid (R)-1-(2-chloro-phenyl)-2-tetrazol-2-yl-ethyl ester] the “Mice LDB % Duration in the light box” value (mice [5]) was “N.S”, the ED50 (mice [1]; 0.5 h) was 4.88 mg/kg and the ED50 (mice [2]; 0.5 h) was 5.81 mg/kg. It also gave an inhibition at 10 µM (rat dopamine transporter) of -58.1%.

For `NC(=O)O[C@H](Cn1nccn1)c1ccc(Cl)c(Cl)c1` [Example 87, Carbamic acid (S)-1-(3,4-dichloro-phenyl)-2-[1,2,3]triazol-2-yl-ethyl ester], the “Mice LDB % Duration in the light box” value (mice [5]) was “N.S”, the ED50 (mice [1]; 0.5 h) was 14.8 mg/kg and the “Mice FST Reduction of immobility %” value (mice [3]; dose not given) was 92.5%. For the same compound, the “TBPS Inhibition % (At 100 μM)” value [4] was 50.1% and the inhibition at 10 µM (rat dopamine transporter) was 93.8%.

For `NC(=O)O[C@H](Cn1ncnn1)c1ccc(Cl)c(Cl)c1` [Example 96, Carbamic acid (S)-1-(3,4-dichloro-phenyl)-2-tetrazol-2-yl-ethyl ester], the ED50 (mice [1]; 0.5 h) was 10.4 mg/kg, the “Mice FST Reduction of immobility %” value (mice [3]; dose not given) was 95.8% and the inhibition at 10 µM (rat dopamine transporter) was 98.4%.

For `O=C(Cn1ccnc1)c1ccc2ccccc2c1` [Nafimidone, 2-(1H-imidazole-1-yl)-1-(2-naphthalenyl)ethanone], the “protection against maximal electroshock- or pentylenetetrazole-induced tonic seizures” value (mice and rats) is given as “protect”, the “antagonism of clonic seizures induced by pentylenetetrazole, strychnine, bicuculline, or picrotoxin” value (clonic seizures) is given as “do not antagonize” and the hexobarbital-induced sleeping time (mice [6]) is given as “potentiated”.

In the case of `OC(Cn1ccnc1)c1ccc(CCc2ccccc2)cc1` (stereo not drawn) [denzimol, α-(4-(2-phenylethyl)phenyl)-1H-imidazole-1-ethanol], the “protection against maximal electroshock- or pentylenetetrazole-induced tonic seizures” value (mice and rats) is listed as “protect”, the “antagonism of clonic seizures induced by pentylenetetrazole, strychnine, bicuculline, or picrotoxin” value (clonic seizures) is listed as “do not antagonize” and the hexobarbital-induced sleeping time (mice [6]) is listed as “potentiated”.
